Molecules are shown by their SMILES.

Data on one molecule can be found in US11708413B2 (priority 2016, dated 2023).

The subject of one experiment is RPMI-8226 (MM) cells. Nature of the experiment: cells. It counts as cell-based. To be noted: Homo sapiens; RPMI-8226 (MM) cells; 72 hrs, Cell Titer-Glo; NK = no killing; read-out: Cell Killing Activity IC50. The procedure: (§1) Cell lines tested included B-lymphoma, multiple myeloma, and leukemia cells.
(§2) Cytotoxicity effects of the free drug linkers and conjugates were measured with a cell proliferation assay. A total of 12500 cells in a volume of 25 μl were seeded in a 384-well flat bottom white polystyrene plate on the day of assay. Free drug-linkers and conjugates were formulated at 2× starting concentration (1000 nM for free drug linkers and 100 nM for ADCs) in RPMI medium and filtered through MultiScreen HTS 96-Well Filter Plates (Millipore). Filter sterilized samples were serial diluted (1:3) under sterile conditions and added into treatment wells. Plates were cultured at 37° C. in a CO2 incubator for 72 hrs. For cell viability measurement, 30 μl of Cell Titer-Glo® reagent (Promega Corp.) was added into each well, and plates processed as per product instructions. Relative luminescence was measured on an ENVISION® plate reader (Perkin-Elmer; Waltham, Mass.). Relative luminescence readings were converted to % viability using untreated cells as controls. Data was fitted with non-linear regression analysis, using log(inhibitor) vs. response, variable slope, 4 parameter fit equation using GraphPad Prism. Data was expressed as % relative cell viability vs. dose of free drug-linker or conjugate in nM.
Each of Conjugates A-F was evaluated for the ability to bind and kill cells expressing CD74. Cell lines tested included B-lymphoma, multiple myeloma, and leukemia cells. Controls included unconjugated anti-CD74 antibody.
A general note: In ATP-based viability assays light output follows the ATP content of the culture.

A further experiment has as its system OPM-2 (MM) cells. Nature of the experiment: Cell killing assay (cell proliferation, Cell Titer-Glo), OPM-2 (MM). The class given is cell-based. To be noted: Homo sapiens, 72 hrs, NK = no killing. The method, then: as §1, §2
(§3) Each of Conjugates A-F was evaluated for the ability to bind and kill cells expressing CD74. […]

For the next experiment, the system named is K562 (CML) cells. Nature of the experiment: Cell killing assay (cell proliferation, Cell Titer-Glo), K562 (CML). To be noted: Homo sapiens, 72 hrs, NK = no killing. It counts as cell-based. The procedure:
as §1, §2, §3

The subject of a further experiment is SUP-B15 (ALL) cells. In words: cells. To be noted: Homo sapiens; SUP-B15 (ALL) cells; 72 hrs, Cell Titer-Glo; NK = no killing; read-out: Cell Killing Activity IC50. The class given is cell-based. The method, then: as §1, §2, §1
For another experiment, the system named is JVM-13 (CLL) cells. In words: cells. It counts as cell-based. To be noted: JVM13; JVM-13 (CLL) cells; 72 hrs, Cell Titer-Glo; NK = no killing; read-out: Cell Killing Activity IC50. The procedure: as §1, §2, §1
In the next experiment the test system is ARD (MM) cells. Nature of the experiment: cells. To be noted: ARD (MM) cells, 72 hrs, Cell Titer-Glo, NK = no killing. The class given is cell-based. The method, then: as §1, §2, §1
In a further experiment the test system is BDCM (AML) cells. Nature of the experiment: cells. The class given is cell-based. To be noted: BDCM (AML) cells; 72 hrs, Cell Titer-Glo; NK = no killing; read-out: Cell Killing Activity IC50. The procedure: as §1, §2, §1
For a further experiment, the system named is RPMI-6666 (HL) cells. Nature of the experiment: cells. It counts as cell-based. To be noted: Homo sapiens; RPMI-6666 (HL) cells; 72 hrs, Cell Titer-Glo; NK = no killing; read-out: Cell Killing Activity IC50. The procedure: as §1, §2, §1
For the next experiment, the system named is SU-DHL-6 (NHL) cells. In words: cells. To be noted: Homo sapiens; SU-DHL-6 (NHL) cells; 72 hrs, Cell Titer-Glo; NK = no killing; read-out: Cell Killing Activity IC50. It counts as cell-based, human. The procedure: as §1, §2, §1

As for `COc1cc2cc(c1Cl)N(C)C(=O)C[C@H](OC(=O)[C@H](C)N(C)C(=O)CCCC(=O)N(C)CCOCCOCCOCCOCCC(=O)NCCC(=O)N1Cc3ccccc3C#Cc3ccccc31)[C@]1(C)O[C@H]1[C@H](C)[C@@H]1C[C@@](O)(NC(=O)O1)[C@H](OC)/C=C/C=C(/C)C2` [Free Linker-Drug, DBCO-PEG4-maytansine, reference compound], the IC50 (in general, the midpoint of a concentration-inhibition curve) in the experiment with RPMI-8226 (MM) cells is 0.018 µM; with OPM-2 (MM) cells, 0.024 µM; in the experiment on K562 (CML) cells it was 0.06 µM; with SUP-B15 (ALL) cells it was 0.011 µM; in the experiment on JVM-13 (CLL) cells, 0.025 µM; in the experiment on ARD (MM) cells (read-out: Cell Killing Activity IC50), around 0.034 µM. Moreover, the IC50 in the experiment with BDCM (AML) cells is 0.013 µM; in the experiment on RPMI-6666 (HL) cells it was around 0.013 µM; in the experiment with SU-DHL-6 (NHL) cells it was 0.015 µM. Besides, the “Cell Killing Activity Span” value with ARD (MM) cells came out at 40%.
